Assay results from patent US20040214805A1, “Method and compositions for treating pulmonary diseases” (SmithKline Beecham Corporation, priority 1999, published 2004).
Read-outs that look alike come from different tables or passages of the source. One block for each compound: values may come before it.

Columns and labels:
asthma patients [1] = conditions: comparators, cited from earlier work
[2] = test system: patients with mild/moderate asthma on ≧800 mcg of beclomethasone; assay: Cilomalast/high dose inhaled corticosteroid (ICS) study; format: in vivo, human
Procedure: R, DB, PC, DR in patients with mild/moderate asthma on ≧800 mcg of beclomethasone
cilomalast® doses were 5, 10 and 15 mg twice daily for 4 weeks.
Primary endpoint: trough clinic FEV1.
Secondary endpoints: morning PEFR, symptoms, PEFR variability, evening PEFR, clinic PEFR, FEF25-75, FEF75, rescue medication used.

[3] = test system: patients with mild/moderate asthma; assay: Cilomalast/low dose inhaled corticosteroid (ICS) dose-ranging study; format: in vivo, human
From the text: This was a phase IIB, randomised, placebo-controlled, dose-ranging study with a one-week single-blind placebo run-in, a 6-week double-blind treatment phase and a one-week follow-up phase in patients with mild/moderate asthma.
Study population: Male or female patients aged between 18 and 70 years, with mild to moderate asthma, who were not adequately controlled on low doses of inhaled corticosteroids (no greater than 500 mcg beclomethasone dipropionate/day or equivalent) were eligible. Patients were required to have a screening FEV1 of >50% and <80% predicted for height, age, sex and race and a 12% or greater reversibility after beta-2 agonist administration. Patients had to have a summary symptom score of 6 or more on 4 out of 7 days preceding the baseline visit to be randomised. The sample size was 300 evaluable patients.
cilomalast was dosed at 5 mg, 10 mg 15 mg twice daily for 6 weeks.
Subjects were on a median of 500 mcg of beclometbasone equivalent although the mean dose of ICS was 652 mcg.
Primary endpoint: change from baseline to endpoint in trough clinic expiratory volume in 1 second (FEV1), changes in clinic FEV1 every week and over a 4 hour period following first dose of double-blind medication.
The primary efficacy measure was defined as the change from baseline to endpoint in trough clinic forced expiratory volume in 1 second (FEV1). Changes in clinic FEV1 were also analysed at each week of the double-blind treatment phase and over a 4-hour period immediately following the first dose of double-blind medication. Secondary efficacy variables were use of inhaled/nebulised beta-2 agonist and overnight asthma symptoms. Tertiary efficacy variables were forced vital capacity (FVC), clinic peak expiratory flow rate (PEFR), forced expiratory flow at 25-75% (FEF25-75) and 75% (FEF75), domiciliary PEFR variability, domiciliary PEFR (morning and evening), summary symptom score (a composite score of overnight, morning and overall daytime asthma), morning asthma, overall daytime asthma, inhaled corticosteroid use, cough, wheeze, breathlessness/chest tightness, asthma exacerbation rates and global assessments by the physician and the patient.

asthma patients [4] = assay: Allergen challenge studies (LAR); format: in vivo, human; conditions: Ariflo 15 mg bd
From the text: Legend: Data on cilomalast was taken from the protocol analysis in asthma patients on <652 mcg of ICS. Data on montelukast (MT), budesonide (BDP) and both was taken from a single study in the Singulair SBA that examined the effect of Singulair relative to inhaled […] corticosteroids.

[5] = developed as an antidepressant; e.g. pyrosis, nausea and emesis; cited from earlier work

SMILES: O=C(Nc1cccc2c(=O)cc(-c3nnn[nH]3)oc12)c1ccc(OCCCCc2ccccc2)cc1 [Ultair]
% Max fall LAR (treatment effect) (asthma patients [1]; ICS = 800 mcg budesonide): 10.7%
% Protection max fall LAR (asthma patients [1]; ICS = 800 mcg budesonide): 30.8%
% AUC of LAR (treatment effect) (asthma patients [1]): 42.4%
% Protection AUC LAR (asthma patients [1]): 42.6%

trough concentrations ([2]; 5, 10, 15 mg twice daily): dose proportional
SMILES: COc1ccc([C@]2(C#N)CC[C@@H](C(=O)O)CC2)cc1OC1CCCC1 [cilomalast, cis 4-cyano-4-(3-cyclopentyloxy-4-methoxyphenyl)cyclohexan-1-carboxylic acid]
4 hour clinic FEV1, clinic FVC, PEFR ([2]; 10 mg BID): numerically superior results
improvement in trough FEV1, repeated measures analysis, patients on <800 mcg of ICS excluded ([2]; 10 mg BID, p=0.009): 0.16 L
dose ordering for the primary endpoint (trough clinic FEV1) ([2]; 5, 10, 15 mg twice daily, 4 weeks): No dose ordering
change in clinic trough FEV1, ITT analysis ([2]; any dose group (5, 10, 15 mg twice daily, 4 weeks)): No statistically significant change
4 hour FEV1, domiciliary PEFR, FEF25-75, physician and patient global assessment scores ([3]; 15 mg BID): Corroborating support
improvement in trough FEV1 at endpoint, ITT analysis, vs placebo ([3]; 15 mg BID, 6 weeks, on low dose ICS, p=0.062, no statistical improvement): 0.16 L
improvement in trough FEV1, excluding patients on ICS doses >500 mcg of beclamethasone ([3]; 15 mg BID, p=0.033, significant): 0.21 L
dose ordering of response for trough FEV1 at endpoint, ITT analysis ([3]; 5, 10, 15 mg twice daily for 6 weeks): dose-ordered
comparison with Singulair when added to low dose ICS ([3]; placebo group also improved in the cilomalast study): outperformed Singulair
% AUC of LAR (treatment effect) (asthma patients [4]): 3.5%
% Max fall LAR (treatment effect) (asthma patients [4]): 1.3%
% Protection AUC LAR (asthma patients [4]): NONE
% Protection max fall LAR (asthma patients [4]): NONE

SMILES: COc1ccc(C2CNC(=O)C2)cc1OC1CCCC1 (stereo not shown) [rolipram]
side effects in clinical studies [5]: produces gastrointestinal effects
